The text below walks through data of patent US12357552B2, “Hydroxyquinoline compounds and methods of use as pigment modifying agents” (priority 2021, dated 2025).

One may read the IC50 as the point on the concentration scale where inhibition reaches its midpoint. Broadly, the Ki is the dissociation constant of the complex between target and ligand, obtained from inhibition or displacement.

Like-named read-outs stand apart in the source and are kept apart here.

The subject of series [1] is MNT-1 cells. The series is described as follows: inhibition of melanin production in human melanoma MNT-1 cells. The series is classed as cell-based. The conditions noted are these: 3 days. As for the experimental part:
To assess melanogenesis inhibition within cells, the human melanoma MNT-1 cell line (CRL-3450 from ATCC), cultured and divided according to the recommended protocol, was subjected to varying concentrations of chloroxine (2) and the other hydroxyquinoline drugs. The MNT-1 cell line was chosen because it was previously used successfully for quantifying melanin synthesis (Hah et al., 2012). Frozen stocks (3.8×10^6 cells) of cells were thawed in a 37° C. water bath, then plated into three 10-cm plates containing 10 mL of MDEM+10% fetal bovine serum and 100 μL of 100× Penicillin/Streptomycin. When the cells became confluent, medium was aspirated, cells were rinsed with sterile phosphate-buffered saline (PBS), and then treated with 1 mL of 0.25% trypsin with 0.02% EDTA at 37° C. for 3 min. When the cells became loose, 4 mL of medium was added to neutralize the trypsin. FIG. 5 depicts the inhibition of melanin production in MNT-1 cells by chloroxine, an inhibitor of tyrosinase, at concentrations indicated. Cells were incubated with chloroxine for 3 days and then harvested, with melanin quantified after cell lysis, measuring absorbance at 405 nm. […]
Where Acmpd is the absorbance value for the test compound, and Ap and An are the absorbance values of the positive and negative controls, respectively. […]

Series [2] has as its system MNT-1 cells. The series is described as follows: viability assay in MNT-1 cell line. It counts as cell-based, human. From the text:
Where Acmpd is the absorbance value for the test compound, and Ap and An are the absorbance values of the positive and negative controls, respectively. FIG. 6 depicts the reduction in melanin biosynthesis in MNT-1 cells by chloroxine, relative to the positive control phenylthiourea (PTU), a tyrosinase inhibitor commonly used as a melanin synthesis blocker. Other hydroxyquinoline drugs caused different effects in the MNT-1 cell line. At higher concentrations, the iodo-substituted compounds clioquinol (3) and iodoquinol (4) were toxic, with decreased cell counts in the viability assay.

Series [3] in a line: solubility in aqueous solution under the tyrosinase assay conditions. The conditions noted are these: higher concentrations.
Series [4] deals with mushroom tyrosinase (Agaricus bisporus, UniProt C7FF04). Briefly: fluorescence-based tyrosinase assay with substrate PAP-AMC (monophenolase activity).
Sequence of mushroom tyrosinase (Agaricus bisporus, UniProt C7FF04) (C7FF04 1-392): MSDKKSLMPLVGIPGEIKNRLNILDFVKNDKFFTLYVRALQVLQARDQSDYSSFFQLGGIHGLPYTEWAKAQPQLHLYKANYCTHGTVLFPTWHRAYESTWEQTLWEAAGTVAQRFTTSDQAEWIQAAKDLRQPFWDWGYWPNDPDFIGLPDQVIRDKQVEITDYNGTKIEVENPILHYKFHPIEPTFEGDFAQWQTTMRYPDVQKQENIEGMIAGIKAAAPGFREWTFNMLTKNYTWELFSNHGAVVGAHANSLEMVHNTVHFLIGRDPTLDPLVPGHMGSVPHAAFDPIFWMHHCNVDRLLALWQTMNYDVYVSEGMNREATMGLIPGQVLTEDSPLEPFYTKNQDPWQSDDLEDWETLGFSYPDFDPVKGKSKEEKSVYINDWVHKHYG
Procedure: Enzyme activity was measured using the fluorescent substrate PAP-AMC. […] Fluorescence spectroscopy was carried out on a Carey Eclipse spectrophotometer. Fluorescence intensity was measured at 6-second intervals in quartz cuvettes kept at 37° C. […] In vitro fluorescence assays using mushroom tyrosinase (Worthington Biochemicals) were performed in 50 mM sodium phosphate buffer, pH 7.4 with the fluorescent tyrosinase substrate, PAP-AMC (Biovision). Varying concentrations of inhibitors were used as indicated. Data represent the mean±SD of three independent experiments.
After 5 minute incubation, inhibitor was added as a solution in DMSO. After an additional 2 minute incubation, a DMSO solution of PAP-AMC (0.02 mL of 1 mM solution) was added and, after thoroughly mixing, the reaction was monitored by fluorescence (λ excitation=350 nm; λ emission=440 nm). Initial rates were calculated using the slope of the curve for the first ca. 10% of the reaction. The first 1 min of the reaction were not used owing to the usual induction period observed with tyrosinase. Inhibition assays were performed in triplicate trials. Non-linear regression and curve fitting were done using Prism software (Graphpad Inc). […] The experiment was performed in triplicate at pH 7.4 and data were plotted according to Lineweaver-Burk. Data represent the mean±SD of three independent experiments.
For the next series, the system named is tyrosinase. Particulars: cited from earlier work.
The test system of series [5] is mushroom tyrosinase. Briefly: assessment of reversibility: residual tyrosinase activity after ultrafiltration, with or without exogenous copper sulfate. The series is classed as biochemical. Particulars: 5 μM inhibitor. As for the experimental part:
To gain further insight into the mode of action of the hydroxyquinoline drugs, residual enzyme activity was assessed after separation of the drug from the enzyme. This is generally done to assess whether the inhibitor acts in a reversible or irreversible manner. After incubation and measurement of tyrosinase activity, the drug nitroxoline (1) was separated from the reaction mixture in a Centricon centrifugal filter device, and enzymatic activity remeasured with fresh PAPAMC substrate.
When residual activity was measured after ultracentrifugation, less than 10% of the original activity remained (FIG. 4(b)). […]
To assess reversibility of enzyme inhibition, a reaction mixture containing 5 μM inhibitor was placed into Amicon Ultra centrifugal filters (10 K MWCO), concentrated at 4000 rpm for 10 minutes, followed by dilution with sodium phosphate buffer for a total of three cycles. If reconstitution of enzyme activity was being evaluated, exogenous copper sulfate was added to the remaining solution to a final concentration of 0.1 mM. Then fresh L-DOPA and PAP-AMC substrate was added and fluorescence change measured as previously described. […]

With `Oc1c(Cl)cc(Cl)c2cccnc12` [chloroxine], the “ability to block melanin production” value in the series on MNT-1 cells [1] is recorded as “dose-dependent”. Moreover, the IC50 with MNT-1 cells [1] (Homo sapiens, 72 h, absorbance at 405 nm, read-out: IC50 value for blocking melanin synthesis) was ~1.5 µM. For the same compound, the “toxicity (cell counts in the viability assay)” value (from here on “toxicity”) in the series on MNT-1 cells [2] is “not toxic”. Moreover, the “solubility in aqueous solution” value in series [3] was “did not show evidence of insolubility”. For the same compound, the Ki on mushroom tyrosinase [4] is ~12 µM.

Take `Oc1c(I)cc(Cl)c2cccnc12` [clioquinol]: the “toxicity” value in the series on MNT-1 cells [2] is reported as “toxic”. The compound further had a Ki on mushroom tyrosinase [4] of 367 µM.

On to `O=c1cc(CO)occ1O` [kojic acid], for which, in the series with tyrosinase, the inhibition of tyrosinase entry was “high micromolar”.

Consider `O=[N+]([O-])c1ccc(O)c2ncccc12` [nitroxoline], for which the “enzyme activity after incubation of the concentrate with exogenous copper sulfate” value in the series on mushroom tyrosinase [5] (after ultrafiltration, 0.1 mM copper sulfate) is “substantial recovery of original enzyme activity”. The “residual activity after ultracentrifugation, of the original activity” value in the series on mushroom tyrosinase [5] (no exogenous copper sulfate) is “less than 10%”. The “toxicity” value in the series with MNT-1 cells [2] is “not toxic”. Besides, the Ki on mushroom tyrosinase [4] amounted to 0.9 µM. For the same compound, the “type of enzyme inhibition (Lineweaver-Burk)” value on mushroom tyrosinase [4] (varying substrate and inhibitor concentrations, pH 7.4) is reported as “competitive inhibitor”.

Turning to iodoquinol, the “toxicity” value in the series on MNT-1 cells [2] (MNT-1 cells, higher concentrations) is reported as “toxic”. For the same compound, the “solubility in aqueous solution” value in series [3] is on record as “less soluble in aqueous solution”. In addition, the “inhibitory constant (in words)” value against mushroom tyrosinase [4] (monophenolase activity of tyrosinase) is “high micromolar”. This compound came in with a Ki at mushroom tyrosinase [4] (mushroom tyrosinase, PAP-AMC substrate, pH 7.4) of 1290 µM.
